Species: Rattus norvegicus
Assay: Open TG-GATES - Regimen: Single
Format: toxicity, organism-based, Sprague-Dawley
Set-up: regimen Single, gender Male, age 6 weeks
Conditions: in vivo, ip, 0 mg/kg, route intraperitoneal injection, dose 0 ug/Kg, dose level Control; for APTT / Bas / Eos / Fbg / Hb / Ht / Lym / MCH / MCHC / MCV / Mono / Neu / PT / Plat / RBC / Ret / WBC: tissue Blood; for KIDNEY_L / KIDNEY_R / KIDNEY_TOTAL: tissue Kidney; for LIVER: tissue Liver; for A/G / ALP / ALT / AST / BUN / CRE / Ca / Cl / DBIL / GLC / IP / K / LDH / Na / PL / RALB / TBIL / TC / TG / TP / gamma-GTP: tissue Plasma

H-KGDRLS-OH [TNF-ALPHA]
TERMINAL_BW (3 h): 200.6 g
APTT (3 h): 20 s
Bas (3 h): 0.4%
Eos (3 h): 0.8%
Fbg (3 h): 268.8 mg/dL
Hb (3 h): 13 g/dL
Ht (3 h): 40.3%
Lym (3 h): 73.8%
MCH (3 h): 21.6 pg
MCHC (3 h): 32.3%
MCV (3 h): 66.8 fL
Mono (3 h): 3.8%
Neu (3 h): 19.8%
PT (3 h): 15.4 s
Plat (3 h): 101.9 x10_4/uL
RBC (3 h): 603.2 x10_4/ul
Ret (3 h): 9.3%
WBC (3 h): 95.8 x10_2/uL
KIDNEY_L (3 h): 0.9 g
KIDNEY_R (3 h): 0.9 g
KIDNEY_TOTAL (3 h): 1.7 g
LIVER (3 h): 9.3 g
A/G (3 h): 0.9
ALP (3 h): 1391 IU/L
ALT (3 h): 43 IU/L
AST (3 h): 74.8 IU/L
BUN (3 h): 10.8 mg/dL
CRE (3 h): 0.2 mg/dL
Ca (3 h): 10.8 mg/dL
Cl (3 h): 105.2 meq/L
DBIL (3 h): 0.012 mg/dL
GLC (3 h): 173.4 mg/dL
IP (3 h): 9.6 mg/dL
K (3 h): 4.1 meq/L
LDH (3 h): 73.2 IU/L
Na (3 h): 142.2 meq/L
PL (3 h): 149.2 mg/dL
RALB (3 h): 2.4 g/dL
TBIL (3 h): 0.06 mg/dL
TC (3 h): 79.8 mg/dL
TG (3 h): 61.2 mg/dL
TP (3 h): 5.3 g/dL
gamma-GTP (3 h): 1.2 IU/L
TERMINAL_BW (6 h): 199.4 g
APTT (6 h): 16.7 s
Bas (6 h): 0%
Eos (6 h): 0.2%
Fbg (6 h): 285 mg/dL
Hb (6 h): 13.1 g/dL
Ht (6 h): 40%
Lym (6 h): 68.8%
MCH (6 h): 21.3 pg
MCHC (6 h): 32.6%
MCV (6 h): 65.1 fL
Mono (6 h): 2.8%
Neu (6 h): 26.8%
PT (6 h): 15.6 s
Plat (6 h): 109.7 x10_4/uL
RBC (6 h): 615.4 x10_4/ul
Ret (6 h): 8.8%
WBC (6 h): 77.4 x10_2/uL
KIDNEY_L (6 h): 0.9 g
KIDNEY_R (6 h): 0.9 g
KIDNEY_TOTAL (6 h): 1.9 g
LIVER (6 h): 8.5 g
A/G (6 h): 0.9
ALP (6 h): 1347.2 IU/L
ALT (6 h): 40 IU/L
AST (6 h): 73.6 IU/L
BUN (6 h): 9.4 mg/dL
CRE (6 h): 0.2 mg/dL
Ca (6 h): 10.8 mg/dL
Cl (6 h): 105 meq/L
DBIL (6 h): 0.01 mg/dL
GLC (6 h): 179.6 mg/dL
IP (6 h): 10.1 mg/dL
K (6 h): 4 meq/L
LDH (6 h): 58.8 IU/L
Na (6 h): 142.8 meq/L
PL (6 h): 146.4 mg/dL
RALB (6 h): 2.5 g/dL
TBIL (6 h): 0.058 mg/dL
TC (6 h): 78.8 mg/dL
TG (6 h): 44 mg/dL
TP (6 h): 5.3 g/dL
gamma-GTP (6 h): 1.4 IU/L
TERMINAL_BW (9 h): 195.6 g
APTT (9 h): 18 s
Bas (9 h): 0.4%
Eos (9 h): 0.4%
Fbg (9 h): 305 mg/dL
Hb (9 h): 13.1 g/dL
Ht (9 h): 40.5%
Lym (9 h): 68.4%
MCH (9 h): 20.9 pg
MCHC (9 h): 32.5%
MCV (9 h): 64.2 fL
Mono (9 h): 1.6%
Neu (9 h): 28.6%
PT (9 h): 15.4 s
Plat (9 h): 118.6 x10_4/uL
RBC (9 h): 631 x10_4/ul
Ret (9 h): 8.6%
WBC (9 h): 77.2 x10_2/uL
KIDNEY_L (9 h): 0.9 g
KIDNEY_R (9 h): 0.9 g
KIDNEY_TOTAL (9 h): 1.9 g
LIVER (9 h): 8.2 g
A/G (9 h): 0.9
ALP (9 h): 1246.8 IU/L
ALT (9 h): 42.6 IU/L
AST (9 h): 81.6 IU/L
BUN (9 h): 7.6 mg/dL
CRE (9 h): 0.1 mg/dL
Ca (9 h): 10.4 mg/dL
Cl (9 h): 105.4 meq/L
DBIL (9 h): 0.004 mg/dL
GLC (9 h): 167.4 mg/dL
IP (9 h): 9.9 mg/dL
K (9 h): 3.5 meq/L
LDH (9 h): 61.4 IU/L
Na (9 h): 143.4 meq/L
PL (9 h): 135.8 mg/dL
RALB (9 h): 2.5 g/dL
TBIL (9 h): 0.058 mg/dL
TC (9 h): 74 mg/dL
TG (9 h): 33.6 mg/dL
TP (9 h): 5.4 g/dL
gamma-GTP (9 h): 1.2 IU/L
TERMINAL_BW (24 h): 211.3 g
APTT (24 h): 17.6 s
Bas (24 h): 0%
Eos (24 h): 1%
Fbg (24 h): 302 mg/dL
Hb (24 h): 13.3 g/dL
Ht (24 h): 40.5%
Lym (24 h): 78%
MCH (24 h): 21 pg
MCHC (24 h): 32.8%
MCV (24 h): 64 fL
Mono (24 h): 2.8%
Neu (24 h): 17%
PT (24 h): 15.1 s
Plat (24 h): 115.6 x10_4/uL
RBC (24 h): 634 x10_4/ul
Ret (24 h): 8.1%
WBC (24 h): 80.3 x10_2/uL
KIDNEY_L (24 h): 0.9 g
KIDNEY_R (24 h): 0.9 g
KIDNEY_TOTAL (24 h): 1.8 g
LIVER (24 h): 10.2 g
A/G (24 h): 0.8
ALP (24 h): 1555.2 IU/L
ALT (24 h): 49 IU/L
AST (24 h): 69.8 IU/L
BUN (24 h): 14.8 mg/dL
CRE (24 h): 0.2 mg/dL
Ca (24 h): 11 mg/dL
Cl (24 h): 105.8 meq/L
DBIL (24 h): 0.008 mg/dL
GLC (24 h): 184.2 mg/dL
IP (24 h): 9.1 mg/dL
K (24 h): 4.2 meq/L
LDH (24 h): 76.2 IU/L
Na (24 h): 142 meq/L
PL (24 h): 172.2 mg/dL
RALB (24 h): 2.6 g/dL
TBIL (24 h): 0.038 mg/dL
TC (24 h): 93.2 mg/dL
TG (24 h): 98.2 mg/dL
TP (24 h): 5.6 g/dL
gamma-GTP (24 h): 1 IU/L

Source: ChEMBL document CHEMBL3885861, “Open TG-GATES”
